Data as given in paper PMC11859928, “Design, Synthesis, and Antiproliferative Activity of Novel Indole/1,2,4-Triazole Hybrids as Tubulin Polymerization Inhibitors” (Pharmaceuticals, 2025).
Read-outs that look alike come from different tables or passages of the source.

How the values were obtained:
BT-549 = experiment: NCI one-dose assay; assay type: cell-based; conditions: Homo sapiens, BT-549, Breast cancer, read-out: Cell growth inhibition %
EKVX = experiment: NCI one-dose assay; assay type: cell-based; conditions: Homo sapiens, Non-small cell lung cancer, read-out: Cell growth inhibition %
HCC-2998 = experiment: NCI one-dose assay; assay type: cell-based; conditions: Homo sapiens, HCC-2998, Colon cancer, read-out: Cell growth inhibition %
HCT-116 = experiment: NCI one-dose assay; assay type: cell-based; conditions: Homo sapiens, HCT-116, Colon cancer, read-out: Cell growth inhibition %
HL-60(TB) = experiment: NCI one-dose assay; assay type: cell-based; conditions: Homo sapiens, Leukemia, read-out: Cell growth inhibition %
HT29 = experiment: NCI one-dose assay; assay type: cell-based; conditions: Homo sapiens, HT-29, HT29, Colon cancer, read-out: Cell growth inhibition %
LOX IMVI = experiment: NCI one-dose assay; assay type: cell-based; conditions: Homo sapiens, Melanoma, read-out: Cell growth inhibition %
MCF7 = experiment: NCI one-dose assay; assay type: cell-based; conditions: Homo sapiens, MCF7, Breast cancer, read-out: Cell growth inhibition %
MDA-MB-231/ATCC = experiment: NCI one-dose assay; assay type: cell-based; conditions: Homo sapiens, Breast cancer, read-out: Cell growth inhibition %
NCI-H322M = experiment: NCI one-dose assay; assay type: cell-based; conditions: Homo sapiens, Non-small cell lung cancer, read-out: Cell growth inhibition %
NCI-H460 = experiment: NCI one-dose assay; assay type: cell-based; conditions: Homo sapiens, NCI-H460, Non-small cell lung cancer, read-out: Cell growth inhibition %
NCI-H522 = experiment: NCI one-dose assay; assay type: cell-based; conditions: Homo sapiens, NCI-H522, Non-small cell lung cancer, read-out: Cell growth inhibition %
SF-295 = experiment: NCI one-dose assay; assay type: cell-based; conditions: Homo sapiens, SF-295, CNS cancer, read-out: Cell growth inhibition %
SK-MEL-28 [1] = experiment: NCI one-dose assay; assay type: cell-based; conditions: Homo sapiens, SK-MEL-28, Melanoma, read-out: Cell growth inhibition %
SK-OV-3 = experiment: NCI one-dose assay; assay type: cell-based; conditions: Homo sapiens, SK-OV-3, Ovarian cancer, read-out: Cell growth inhibition %
SW-620 [2] = experiment: NCI one-dose assay; assay type: cell-based; conditions: Homo sapiens, SW-620, Colon cancer, read-out: Cell growth inhibition %
T-47D = experiment: NCI one-dose assay; assay type: cell-based; conditions: Homo sapiens, T47D, Breast cancer, read-out: Cell growth inhibition %
TK-10 = experiment: NCI one-dose assay; assay type: cell-based; conditions: Homo sapiens, TK-10, Renal cancer, read-out: Cell growth inhibition %
U251 = experiment: NCI one-dose assay; assay type: cell-based; conditions: Homo sapiens, U-251, U251, CNS cancer, read-out: Cell growth inhibition %
786-0 = experiment: NCI one-dose assay; assay type: cell-based, human; conditions: for inhibition at 10 µM: Homo sapiens, 786-0, 786-0, Renal cancer, read-out: Cell growth inhibition %
A498 = experiment: NCI one-dose assay; assay type: cell-based, human; conditions: for inhibition at 10 µM: Homo sapiens, A498, A498, Renal cancer, read-out: Cell growth inhibition %
HOP-92 = experiment: NCI one-dose assay; assay type: cell-based, human; conditions: Homo sapiens, HOP-92, HOP-92, Non-small cell lung cancer, read-out: Cell growth inhibition %
UO-31 = experiment: NCI one-dose assay; assay type: cell-based, human; conditions: Homo sapiens, UO-31, UO-31, Renal cancer, read-out: Cell growth inhibition %
SW-620 [3] = experiment: NCI five-dose assay; assay type: cell-based, human; conditions: for CC50 / GI50: Homo sapiens; for CC50: read-out: LC50 (the source's name); for GI50: read-out: GI50 Conc. per Cell Lines
SF-539 = experiment: NCI five-dose assay; assay type: cell-based, human; conditions: for CC50 / GI50: Homo sapiens; for CC50: read-out: LC50 (the source's name); for GI50: read-out: GI50 Conc. per Cell Lines
SNB-75 = experiment: NCI five-dose assay; assay type: cell-based, human; conditions: for CC50 / GI50: Homo sapiens; for CC50: read-out: LC50 (the source's name); for GI50: read-out: GI50 Conc. per Cell Lines
MALME-3M = experiment: NCI five-dose assay; assay type: cell-based, human; conditions: for CC50 / GI50: Homo sapiens; for CC50: read-out: LC50 (the source's name); for GI50: read-out: GI50 Conc. per Cell Lines
SK-MEL-28 [4] = experiment: NCI five-dose assay; assay type: cell-based, human; conditions: for CC50 / GI50: Homo sapiens; for CC50: read-out: LC50 (the source's name); for GI50: read-out: GI50 Conc. per Cell Lines
SK-MEL-5 = experiment: NCI five-dose assay; assay type: cell-based, human; conditions: for CC50 / GI50: Homo sapiens; for CC50: read-out: LC50 (the source's name); for GI50: read-out: GI50 Conc. per Cell Lines
NCI 60 cell lines = experiment: NCI one-dose assay, full panel; assay type: cell-based, human; conditions: Homo sapiens, 60 cell, read-out: cell growth inhibition percentage, range

O/N=C(\CSc1nnc(-c2c[nH]c3ccccc23)n1-c1ccccc1)c1ccc(Br)cc1 [Compound 7i, (Z)-2-((5-(1H-Indol-3-yl)-4-phenyl-4H-1,2,4-triazol-3-yl)thio)-1-(4-bromophenyl) Ethanone Oxime]
inhibition at 10 µM (BT-549): 173% | inhibition at 10 µM (EKVX): 163% | inhibition at 10 µM (HCC-2998): 166% | inhibition at 10 µM (HCT-116): 136% | inhibition at 10 µM (HL-60(TB)): 136% | inhibition at 10 µM (HT29): 177% | inhibition at 10 µM (LOX IMVI): 187% | inhibition at 10 µM (MCF7): 143% | inhibition at 10 µM (MDA-MB-231/ATCC): 184% | inhibition at 10 µM (NCI-H322M): 173% | inhibition at 10 µM (NCI-H460): 122% | inhibition at 10 µM (NCI-H522): 130% | inhibition at 10 µM (SF-295): 115% | inhibition at 10 µM (SK-MEL-28 [1]): 126% | inhibition at 10 µM (SK-OV-3): 150% | inhibition at 10 µM (SW-620 [2]): 186% | inhibition at 10 µM (T-47D): 94% | inhibition at 10 µM (TK-10): 183% | inhibition at 10 µM (U251): 90.3% | Cell growth inhibition % (786-0; 786-0, Renal cancer, 10 µM): 65.25% | inhibition at 10 µM (786-0): 65% | Cell growth inhibition % (A498; A498, Renal cancer, 10 µM): 37.85% | inhibition at 10 µM (A498): 38% | inhibition at 10 µM (HOP-92): 111% | inhibition at 10 µM (UO-31): 96.4% | CC50 (SW-620 [3]; SW-620, Colon cancer, 48 h): 62.1 µM | GI50 (SW-620 [3]; SW-620, Colon cancer): 3.28 µM | TGI Conc. per Cell Lines (SW-620 [3]; SW-620, Colon cancer): 12.10 µM | CC50 (SF-539; SF-539, CNS cancer, 48 h): 38.4 µM | GI50 (SF-539; SF-539, CNS cancer): 4.04 µM | TGI Conc. per Cell Lines (SF-539; SF-539, CNS cancer): 14.20 µM | CC50 (SNB-75; SNB-75, CNS cancer, 48 h): 28.1 µM | GI50 (SNB-75; SNB-75, CNS cancer): 1.87 µM | TGI Conc. per Cell Lines (SNB-75; SNB-75, CNS cancer): 4.95 µM | CC50 (MALME-3M; Melanoma, 48 h): 87 µM | GI50 (MALME-3M; Melanoma): 3.22 µM | TGI Conc. per Cell Lines (MALME-3M; Melanoma): 14.30 µM | CC50 (SK-MEL-28 [4]; SK-MEL-28, Melanoma, 48 h): 44.8 µM | GI50 (SK-MEL-28 [4]; SK-MEL-28, Melanoma): 3.4 µM | TGI Conc. per Cell Lines (SK-MEL-28 [4]; SK-MEL-28, Melanoma): 12.50 µM | CC50 (SK-MEL-5; SK-MEL-5, Melanoma, 48 h): 35.8 µM | GI50 (SK-MEL-5; SK-MEL-5, Melanoma): 3.55 µM | TGI Conc. per Cell Lines (SK-MEL-5; SK-MEL-5, Melanoma): 12.80 µM | inhibition at 10 µM (NCI 60 cell lines; eight cell lines): 86 to 99% | inhibition at 10 µM (NCI 60 cell lines; forty-nine cell lines with complete cell death): 106 to 200%

O/N=C(\CSc1nnc(-c2c[nH]c3ccccc23)n1-c1ccccc1)c1ccc(Cl)cc1 [Compound 7j, (Z)-2-((5-(1H-Indol-3-yl)-4-phenyl-4H-1,2,4-triazol-3-yl)thio)-1-(4-chlorophenyl) Ethanone Oxime]
inhibition at 10 µM (BT-549): 167% | inhibition at 10 µM (EKVX): 98% | inhibition at 10 µM (HCC-2998): 83% | inhibition at 10 µM (HCT-116): 99.3% | inhibition at 10 µM (HL-60(TB)): 126% | inhibition at 10 µM (HT29): 95.5% | inhibition at 10 µM (LOX IMVI): 189% | inhibition at 10 µM (MCF7): 96.7% | inhibition at 10 µM (MDA-MB-231/ATCC): 155% | inhibition at 10 µM (NCI-H322M): 149% | inhibition at 10 µM (NCI-H460): 89.5% | inhibition at 10 µM (NCI-H522): 87.6% | inhibition at 10 µM (SF-295): 85.9% | inhibition at 10 µM (SK-MEL-28 [1]): 78.8% | inhibition at 10 µM (SK-OV-3): 102% | inhibition at 10 µM (SW-620 [2]): 137% | inhibition at 10 µM (T-47D): 96.1% | inhibition at 10 µM (TK-10): 123% | inhibition at 10 µM (U251): 69.5% | inhibition at 10 µM (786-0): 65.9% | inhibition at 10 µM (A498): 16.3% | inhibition at 10 µM (HOP-92): 108% | inhibition at 10 µM (UO-31): 65.6% | GI50 (SW-620 [3]; SW-620, five dose levels): 3.08 µM | CC50 (SW-620 [3]; SW-620, five dose levels): 83.2 µM | TGI Conc. per Cell Lines (SW-620 [3]; SW-620, five dose levels): 16.1 µM | GI50 (SF-539; SF-539, five dose levels): 10.2 µM | CC50 (SF-539; SF-539, five dose levels): 51.2 µM | TGI Conc. per Cell Lines (SF-539; SF-539, five dose levels): 29.5 µM | GI50 (SNB-75; SNB-75, five dose levels): 1.68 µM | CC50 (SNB-75; SNB-75, five dose levels): > 100 µM | TGI Conc. per Cell Lines (SNB-75; SNB-75, five dose levels): 5.80 µM | GI50 (MALME-3M; five dose levels): 4.99 µM | CC50 (MALME-3M; five dose levels): > 100 µM | TGI Conc. per Cell Lines (MALME-3M; five dose levels): 27.5 µM | GI50 (SK-MEL-28 [4]; SK-MEL-28, five dose levels): 4.41 µM | CC50 (SK-MEL-28 [4]; SK-MEL-28, five dose levels): 57.7 µM | TGI Conc. per Cell Lines (SK-MEL-28 [4]; SK-MEL-28, five dose levels): >100 µM | GI50 (SK-MEL-5; SK-MEL-5, five dose levels): 3.87 µM | CC50 (SK-MEL-5; SK-MEL-5, five dose levels): 38.7 µM | TGI Conc. per Cell Lines (SK-MEL-5; SK-MEL-5, five dose levels): 19.5 µM | inhibition at 10 µM (NCI 60 cell lines; six cell lines with moderate activity): 52 to 66% | inhibition at 10 µM (NCI 60 cell lines; twenty-eight cell lines with total cell death): 102 to 200% | inhibition at 10 µM (NCI 60 cell lines; twenty-four cell lines): 69.5 to 99.3%
